Some test systems named below: CCRF-CEM; SNB-19; MOLT-4; HT-29; OVCAR-3; COLO 205; HCT-116; CAKI-1; RPMI-8226; NCI-H226; SF-295; HCC 2998; A549; SW-620; 786-0; Malme-3M; M14.
Common to all, as to assay: NCI-60 cell line screen, 48 h

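In this assay, cells in 96-well plates receive the compound at five concentrations for 48 hours. Endpoints are linearly interpolated between the surrounding concentrations. At the GI50, growth is halved.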 The source made the active and inactive calls. No stated cut-off is given here; in the data, active = GI50 up to about 1.1 µM and inactive = higher.

Turning to `CSc1nc(CO)c(CO)n1C`, the GI50 in the experiment with CCRF-CEM, in the experiment with SNB-19, in the experiment on MOLT-4, in the experiment with HT-29, in the experiment on OVCAR-3 and with COLO 205 was > 100 µM (inactive) in each case. In addition, the GI50 in the experiment on HCT-116, in the experiment with CAKI-1, in the experiment with RPMI-8226, in the experiment on NCI-H226, in the experiment with SF-295 and in the experiment on HCC 2998 was > 100 µM (inactive) in each case. Further, the GI50 in the experiment on A549 and in the experiment with SW-620 was > 100 µM (inactive) each time.
In the case of `CC(=O)Nc1ccc(-c2nnc(SCC(=O)Nc3ccccc3Cl)o2)cc1`, the GI50 in the experiment on CCRF-CEM was > 100 µM (inactive); in the experiment with SNB-19 it was > 100 µM (inactive); with MOLT-4 it was > 100 µM (inactive); in the experiment with HT-29, 80.4 µM (inactive); in the experiment with 786-0, > 100 µM (inactive); in the experiment with OVCAR-3 it was 93.1 µM (inactive). Also, the GI50 in the experiment on Malme-3M is > 100 µM (inactive); in the experiment with COLO 205 it was > 100 µM (inactive); in the experiment with HCT-116, 44.1 µM (inactive); in the experiment with CAKI-1, > 100 µM (inactive); with NCI-H226, > 100 µM (inactive); with SF-295, > 100 µM (inactive). The GI50 with HCC 2998, in the experiment on A549, in the experiment with M14 and with SW-620 was > 100 µM (inactive) throughout.
`CC(C)(C)c1cc(CCC(=O)Nc2ccc(Cl)cc2)nc(NC#N)n1`: the GI50 with CCRF-CEM, in the experiment on SNB-19, in the experiment on MOLT-4, in the experiment on HT-29, with 786-0 and in the experiment with OVCAR-3 was > 100 µM (inactive) each time. Also, the GI50 in the experiment on COLO 205, in the experiment on HCT-116, with CAKI-1, in the experiment with NCI-H226, in the experiment on SF-295 and in the experiment with A549 was > 100 µM (inactive) each time. Also, the GI50 in the experiment with M14 and in the experiment with SW-620 was > 100 µM (inactive) each time.
As to `C[N+](C)(C)CC(=O)N/N=C/c1oc(-c2cccc([N+](=O)[O-])c2)c(-c2cccc([N+](=O)[O-])c2)c1[N+](=O)[O-]`, the GI50 with CCRF-CEM was 35.2 µM (inactive); in the experiment with SNB-19 it was 85.9 µM (inactive); in the experiment on MOLT-4, > 10 µM (inactive); with HT-29, > 100 µM (inactive); in the experiment on 786-0, 48.1 µM (inactive); with Malme-3M, > 100 µM (inactive). Besides, the GI50 was > 100 µM (inactive) with COLO 205; 32.7 µM (inactive) in the experiment with HCT-116; 21.7 µM (inactive) in the experiment with RPMI-8226; > 100 µM (inactive) with HCC 2998; > 100 µM (inactive) in the experiment on A549; > 100 µM (inactive) in the experiment with M14. For the same compound, the GI50 in the experiment with SW-620 is 31.3 µM (inactive).
In the case of `Cc1cc2c(cc1C)[n+]([O-])c(C(=O)C/C(=N/NC(=O)CC#N)C(=O)Nc1ccccc1C(F)(F)F)c(C)[n+]2[O-]`, the GI50 was 25.4 µM (inactive) in the experiment with CCRF-CEM; 75 µM (inactive) with SNB-19; 52 µM (inactive) in the experiment on MOLT-4; 49.3 µM (inactive) in the experiment on HT-29; 52.8 µM (inactive) in the experiment on 786-0; 37 µM (inactive) with OVCAR-3. Also, the GI50 in the experiment with Malme-3M was 3.56 µM (inactive); in the experiment with COLO 205, 46.1 µM (inactive); in the experiment with HCT-116 it was 4.05 µM (inactive); in the experiment on CAKI-1, 57.7 µM (inactive); in the experiment with NCI-H226 it was 26.9 µM (inactive); with SF-295, 95.7 µM (inactive). For the same compound, the GI50 in the experiment on HCC 2998 was 65.5 µM (inactive); in the experiment on A549 it was 35 µM (inactive); with M14, 44.2 µM (inactive); in the experiment on SW-620 it was 50.6 µM (inactive).
Take `CC(=O)Nc1ccc(Cl)c(Cl)c1`: the GI50 in the experiment with CCRF-CEM, in the experiment with SNB-19, with MOLT-4, in the experiment with HT-29, in the experiment on 786-0 and in the experiment with OVCAR-3 was > 100 µM (inactive) throughout. In addition, the GI50 in the experiment on Malme-3M, in the experiment on COLO 205, in the experiment with HCT-116, in the experiment on RPMI-8226, in the experiment on NCI-H226 and in the experiment with SF-295 was > 100 µM (inactive) in each case. Besides, the GI50 was > 100 µM (inactive) with HCC 2998, > 100 µM (inactive) with A549, 40.4 µM (inactive) in the experiment with M14 and > 100 µM (inactive) in the experiment on SW-620.
Consider `Cc1cccc2nc3cccc(C(=O)NCCN(C)C)c3nc12`, for which the GI50 with CCRF-CEM was 0.627 µM (active); in the experiment on SNB-19, 0.525 µM (active); in the experiment on MOLT-4 it was 0.26 µM (active); in the experiment on HT-29, 0.507 µM (active); with 786-0, 0.647 µM (active); in the experiment with OVCAR-3, 1.36 µM (inactive). The GI50 in the experiment on COLO 205 was 0.443 µM (active); in the experiment on HCT-116 it was 0.293 µM (active); in the experiment on CAKI-1, 0.482 µM (active); in the experiment with NCI-H226, 1.04 µM (active); in the experiment on SF-295, 0.643 µM (active); in the experiment with HCC 2998, 1.04 µM (active). Also, the GI50 in the experiment on A549 was 0.383 µM (active); in the experiment with M14, 0.766 µM (active); in the experiment with SW-620 it was 0.272 µM (active).
For the compound `O=C1C=C(Nc2ccc(Br)cc2)c2ccccc2C1=O`, the GI50 with CCRF-CEM is 11 µM (inactive); in the experiment on SNB-19, 15.6 µM (inactive); with MOLT-4 it was 10.9 µM (inactive); in the experiment on HT-29, 17.5 µM (inactive); in the experiment on 786-0, 14.6 µM (inactive); in the experiment on OVCAR-3 it was 7.1 µM (inactive). In addition, the GI50 in the experiment on Malme-3M is 15.1 µM (inactive); with COLO 205 it was 17 µM (inactive); in the experiment with HCT-116 it was 13.6 µM (inactive); in the experiment on RPMI-8226 it was 6.73 µM (inactive); in the experiment with NCI-H226 it was 18.7 µM (inactive); in the experiment with SF-295, 15.8 µM (inactive). Also, the GI50 with HCC 2998 is 15 µM (inactive); in the experiment on A549 it was 12.7 µM (inactive); in the experiment on M14, 14.9 µM (inactive); in the experiment on SW-620, 12.9 µM (inactive).
Consider `CSc1s[s+]c(SC)c1[O-]`, for which the GI50 with CCRF-CEM was 8.77 µM (inactive); in the experiment with SNB-19 it was > 100 µM (inactive); in the experiment with MOLT-4, 13.3 µM (inactive); in the experiment on HT-29 it was 24.7 µM (inactive); in the experiment on 786-0 it was 16.5 µM (inactive); with OVCAR-3 it was 26.5 µM (inactive). Further, the GI50 is 16.6 µM (inactive) in the experiment with Malme-3M; 27.2 µM (inactive) in the experiment with COLO 205; 17.1 µM (inactive) with HCT-116; 20.7 µM (inactive) in the experiment with CAKI-1; > 100 µM (inactive) in the experiment with NCI-H226; 47.9 µM (inactive) with SF-295. Also, the GI50 was > 100 µM (inactive) in the experiment with HCC 2998, > 100 µM (inactive) with A549, 17.5 µM (inactive) in the experiment with M14 and 17.8 µM (inactive) in the experiment on SW-620.
Turning to `CC(=O)c1c(P(=O)(OC(C)C)OC(C)C)nn(-c2ccc([N+](=O)[O-])cc2)c1C`, the GI50 in the experiment on CCRF-CEM, in the experiment with SNB-19, with MOLT-4, with HT-29, in the experiment with OVCAR-3 and in the experiment on Malme-3M was > 100 µM (inactive) each time. Further, the GI50 in the experiment on COLO 205, in the experiment with HCT-116, with CAKI-1, in the experiment with RPMI-8226, in the experiment with SF-295 and in the experiment with HCC 2998 was > 100 µM (inactive) in each case. The GI50 in the experiment with A549, in the experiment with M14 and in the experiment on SW-620 was > 100 µM (inactive) each time.
`O=C(O)/C(=C/c1ccccc1[N+](=O)[O-])c1ccccc1`: the GI50 in the experiment with SNB-19, with MOLT-4, in the experiment on HT-29, in the experiment with 786-0, in the experiment with OVCAR-3 and in the experiment with COLO 205 was > 100 µM (inactive) throughout. Further, the GI50 in the experiment on HCT-116, in the experiment with CAKI-1, in the experiment on RPMI-8226, in the experiment on NCI-H226, in the experiment with SF-295 and with HCC 2998 was > 100 µM (inactive) in each case. The GI50 with A549, with M14 and in the experiment with SW-620 was > 100 µM (inactive) in each case.
`c1ccc2c(c1)OCCc1cn[nH]c1-2`: the GI50 with CCRF-CEM, with SNB-19, in the experiment with MOLT-4, in the experiment on HT-29, in the experiment on OVCAR-3 and with Malme-3M was > 100 µM (inactive) each time. Besides, the GI50 in the experiment on COLO 205 was > 100 µM (inactive); in the experiment on HCT-116, > 100 µM (inactive); with CAKI-1, 0.452 µM (active); in the experiment with NCI-H226, 22.2 µM (inactive); in the experiment with SF-295, > 100 µM (inactive); in the experiment on HCC 2998, > 100 µM (inactive). Besides, the GI50 with A549 and in the experiment with SW-620 was > 100 µM (inactive) throughout.
With `NC1=NS(=O)(=O)Nc2[nH]c(-c3ccccc3)nc21`, the GI50 in the experiment on CCRF-CEM, in the experiment on SNB-19, with MOLT-4, with HT-29, with 786-0 and with OVCAR-3 was > 100 µM (inactive) throughout. For the same compound, the GI50 in the experiment on Malme-3M, in the experiment on COLO 205, in the experiment with HCT-116, with RPMI-8226, in the experiment with NCI-H226 and in the experiment on SF-295 was > 100 µM (inactive) throughout. Also, the GI50 in the experiment with HCC 2998, with A549, with M14 and in the experiment on SW-620 was > 100 µM (inactive) throughout.
